Read-outs that look alike come from different tables or passages of the source. *1 amine or outer side, *2 acyl side, *3 side chain or, on linkers, in order; H or OH if unused. Where a SMILES comes first, the peptide text is derived from it. [ ]: non-standard residue; d: D form. dAla(ψthiazole) = C[C@@H](N[*:1])c1nc(C(=O)[*:2])cs1; Trp(4-Br) = N[C@@H](Cc1c[nH]c2cccc(Br)c12)C(=O)O; Trp(4-Cl) = N[C@@H](Cc1c[nH]c2cccc(Cl)c12)C(=O)O; Trp(4-OMe) = COc1cccc2[nH]cc(C[C@H](N)C(=O)O)c12; X1 = O=C(/C(=C/c1ccccc1)N[*:1])[*:2]; X2 = CC(C)/C=C(\N[*:1])C(=O)[*:2]; ΔVal = CC(C)=C(N)C(=O)O; Dha = C=C(N)C(=O)O; Sar = CNCC(=O)O
What was measured:
[1] = tested on: C. difficile ATCC 43255 (aka VPI 10463; ribotype 087); assay: Mouse model of C. difficile-associated disease; type: in vivo, C57BL/6 mice
P. aeruginosa PAO1 = settings: for activity against P. aeruginosa in comparison to the Dha containing compound 3: PAO1; for IC50 / % Growth inhibition at 100 μM: PAO1, 13 h
B. multivorans ATCC17616 = settings: ATCC17616, 25 h
[2] = amide bond, 24-membered ring, PyBOP/HOBt/DIPEA, 0.5 mM
Strep. pyogenes = settings: 13 h
[3] = tested on: Clostridium difficile 630Δerm; settings: 13 h
Strep. agalactiae = settings: 13 h
[4] = tested on: clinical isolates and one wild-type strain of P. aeruginosa; assay: Growth of P. aeruginosa clinical isolates and wild-type strain with compounds (FIG. 1); type: cell-based, Pseudomonas aeruginosa; settings: isolates W4, W14, W23, W46 and PAO1; MH media, 13 hours (FIG. 1)
Procedure: FIGS. 1a and 1b are graphs showing the effects of varying concentrations of compounds 2 and 3 according to the invention on the growth of different strains of P. aeruginosa in Müller-Hinton (MH) media, after 13 hours.
The antibacterial activity of compounds 2 and 3 were tested against clinical isolates and one wild-type strain of P. aeruginosa displaying varying antibiotic sensitivity.
The antibacterial activity of compounds 2 and 3 were tested against these clinical isolates and one wild-type strain of P. aeruginosa.

| IC50 (P. aeruginosa PAO1) [µM] | IC50 (B. multivorans ATCC17616) [µM] | SMILES | activity against P. aeruginosa in comparison to the Dha containing compound 3 (P. aeruginosa PAO1) | % Growth inhibition at 100 μM (P. aeruginosa PAO1) [%] | also measured |
| --- | --- | --- | --- | --- | --- |
|  |  | CCc1c(Cl)c(O)c(Cl)c(O)c1C(=O)O[C@H]1[C@H](O)[C@H](OC)[C@H](OC/C2=C\C=C\C[C@H](O)/C(C)=C/[C@H](CC)[C@@H](O[C@@H]3OC(C)(C)[C@@H](OC(=O)C(C)C)[C@H](O)[C@@H]3O)/C(C)=C/C(C)=C/C[C@@H]([C@@H](C)O)OC2=O)O[C@@H]1C [Fidaxomicin, reference compound] |  |  | survival to the end of the study at day-21 post-infection ([1]; 2.5 mg/kg): survived to the end of the study; Mean survival ([1]; 2.5 mg/kg oral BD for 5 days): 504.00 h |
| 12.2 ± 0.2 | 1.54 ± 0.2 | CC(C)=C1NC(=O)[C@@H](C)NC(=O)CNC(=O)[C@H](Cc2c[nH]c3cccc(Br)c23)NC(=O)[C@H](Cc2c[nH]c3ccccc23)NC(=O)c2csc(n2)[C@@H](C)NC(=O)CN(C)C1=O [Compound 13, Cyclo[D-Ala-Thz-Trp-Trp(4-Br)-Gly-D-Ala-Dhv-Sar]] (cyclo(G[dA][ΔVal][Sar][dAla(ψthiazole)]W[Trp(4-Br)])) | did not result in a notable change in activity | 85.1 ± 3.4 |  |
| > 100 | 0.98 ± 0.1 | CC(C)/C=C1\NC(=O)[C@@H](C)NC(=O)CNC(=O)[C@H](Cc2c[nH]c3cccc(Br)c23)NC(=O)[C@H](Cc2c[nH]c3ccccc23)NC(=O)c2csc(n2)[C@@H](C)NC(=O)CN(C)C1=O [Compound 14, Cyclo[D-Ala-Thz-Trp-Trp(4-Br)-Gly-D-Ala-Dhl-Sar]] (cyclo(G[dA][X2][Sar][dAla(ψthiazole)]W[Trp(4-Br)])) | dramatic loss in activity | 40.1 ± 6.8 |  |
| 19.8 ± 1.6 | 3.1 ± 1.7 | C=C1NC(=O)[C@@H](C)NC(=O)CNC(=O)[C@H](Cc2c[nH]c3cccc(OC)c23)NC(=O)[C@H](Cc2c[nH]c3ccccc23)NC(=O)c2csc(n2)[C@@H](C)NC(=O)CN(C)C1=O [Argyrin A, Cyclo[D-Ala-Thz-Trp-Trp(4-MeO)-Gly-D-Ala-Dha-Sar], reference compound] (cyclo(W[Trp(4-OMe)]G[dA][Dha][Sar][dAla(ψthiazole)])) |  | 82.6 ± 7.4 |  |
|  |  | C=C1NC(=O)[C@@H](C)NC(=O)CNC(=O)[C@H](Cc2c[nH]c3ccc(Cl)c(Cl)c23)NC(=O)[C@H](Cc2c[nH]c3ccccc23)NC(=O)c2csc(n2)[C@@H](C)NC(=O)CN(C)C1=O [Cyclo[D-Ala-Thz-Trp-Trp(4,5-C1)-Gly-D-Ala-Dha-Sar]] |  |  | ring closure, yield after HPLC ([2]; from H-dAla-Thz-Trp-Trp(4,5-Cl)-Gly-dAla-Dha-Sar-OH?): 2% |
|  |  | C=C1NC(=O)[C@@H](C)NC(=O)CNC(=O)[C@H](Cc2c[nH]c3cccc(Cl)c23)NC(=O)[C@H](Cc2c[nH]c3ccccc23)NC(=O)c2csc(n2)[C@@H](C)NC(=O)CN(C)C1=O [Cyclo[D-Ala-Thz-Trp-Trp(4-C1)-Gly-D-Ala-Dha-Sar]] |  |  | ring closure, yield after HPLC ([2]; from H-dAla-Thz-Trp-Trp(4-Cl)-Gly-dAla-Dha-Sar-OH?): 5% |
| > 100 | 1.1 ± 0.2 | C[C@H]1NC(=O)CNC(=O)[C@H](Cc2c[nH]c3cccc(Br)c23)NC(=O)[C@H](Cc2c[nH]c3ccccc23)NC(=O)c2csc(n2)[C@@H](C)NC(=O)CN(C)C(=O)/C(=C/c2ccccc2)NC1=O [Compound 12, Cyclo[D-Ala-Thz-Trp-Trp(4-Br)-Gly-D-Ala-Dhp-Sar]] (cyclo(G[dA][X1][Sar][dAla(ψthiazole)]W[Trp(4-Br)])) | dramatic loss in activity | 20.1 ± 5.4 |  |
|  |  | c1cc(-c2nc3ccc(-c4ccc5nc(-c6ccncc6)[nH]c5c4)cc3[nH]2)ccn1 [SMT19969, reference compound] |  |  | Mean survival ([1]; 20 mg/kg oral BD for 5 days): 88.00 h |

| SMILES | IC50 (P. aeruginosa PAO1) [µM] | IC50 (B. multivorans ATCC17616) [µM] | activity against P. aeruginosa in comparison to the Dha containing compound 3 (P. aeruginosa PAO1) | % Growth inhibition at 100 μM (P. aeruginosa PAO1) [%] | also measured |
| --- | --- | --- | --- | --- | --- |
| C=C1NC(=O)[C@@H](C)NC(=O)CNC(=O)[C@H](Cc2c[nH]c3cccc(Cl)c23)NC(=O)[C@H](Cc2c[nH]c3ccccc23)NC(=O)c2csc(n2)[C@@H](C)NC(=O)CN(C)C1=O [Compound 2, Cyclo[D-Ala-Thz-Trp-Trp(4-Cl)-Gly-D-Ala-Dha-Sar]] (cyclo([Dha][Sar][dAla(ψthiazole)]W[Trp(4-Cl)]G[dA])) | 16.8 ± 2.9 | 2.9 ± 2.5 |  | 87.0 ± 1.0 | IC50 (Strep. pyogenes): > 100 µM; IC50 [3]: 0.18 ± 0.03 µM; IC50 (Strep. agalactiae): > 100 µM; susceptibility of the isolates to the compound [4]: equally susceptible |

From patent publication US11192888B2, “Antibacterial compounds” (priority 2017, dated 2021)
